From US9686986B2, “Herbicidal compounds” (SYNGENTA LIMITED, priority 2011, dated 2017)

Experiments:
Test in all cases: Glasshouse herbicide test, pre- and post-emergence, percentage damage
Format in all cases: in vivo
[1] = test system: Amaranthus retoflexus (AMARE); settings: 1000 g/h, evaluated after 13 days, five point scale (Table B2); for percentage damage caused to the plant, AMARE, POST Application: post-emergence; for percentage damage caused to the plant, AMARE, PRE Application: pre-emergence
Procedure: (§1) Seeds of a variety of test species are sown in standard soil in pots (Alopecurus myosuroides (ALOMY), Setaria faberi (SETFA), Stellaria media (STEME), Echinochloa crus-galli (ECHCG), Solanum nigrum (SOLNI), Amaranthus retoflexus (AMARE), Ipomoea hederacea (IPOHE), Lolium perenne (LOLPE). After cultivation for one day (pre-emergence) or after 8 days cultivation (post-emergence) under controlled conditions in a glasshouse (at 24/16° C., day/night; 14 hours light; 65% humidity), the plants are sprayed with an aqueous spray solution derived from the formulation of the technical active ingredient in acetone/water (50:50) solution containing 0.5% Tween 20 (polyoxyethelyene sorbitan monolaurate, CAS RN 9005-64-5). Compounds ae applied at 1000 g/h. The test plants are then grown in a glasshouse under controlled conditions in a glasshouse (at 24/16° C., day/night; 14 hours light; 65% humidity) and watered twice daily. After 13 days for pre and post-emergence, the test is evaluated for the percentage damage caused to the plant. The biological activities are shown in the following table on a five point scale (5=80-100%; 4=60-79%; 3=40-59%; 2=20-39%; 1=0-19%).

Lolium perenne (LOLPE) = settings: 1000 g/h, evaluated after 13 days, five point scale; for percentage damage caused to the plant, LOLPE, POST Application: post-emergence; for percentage damage caused to the plant, LOLPE, PRE Application: pre-emergence
Procedure: as §1

DIGSA = settings: 1000 g/h, evaluated after 13 days, five point scale; for percentage damage caused to the plant, DIGSA, POST Application: post-emergence; for percentage damage caused to the plant, DIGSA, PRE Application: pre-emergence
Procedure: [The source words this procedure for another organism and reports this organism under the same test.] as §1

Stellaria media (STEME) = settings: 1000 g/h, evaluated after 13 days, five point scale; for percentage damage caused to the plant, STEME, POST Application: post-emergence; for percentage damage caused to the plant, STEME, PRE Application: pre-emergence
Procedure: as §1

| Structure (SMILES) | percentage damage caused to the plant, AMARE, POST Application [1] | percentage damage caused to the plant, AMARE, PRE Application [1] | percentage damage caused to the plant, LOLPE, POST Application (Lolium perenne (LOLPE)) | percentage damage caused to the plant, LOLPE, PRE Application (Lolium perenne (LOLPE)) | percentage damage caused to the plant, DIGSA, POST Application (DIGSA) | percentage damage caused to the plant, DIGSA, PRE Application (DIGSA) | percentage damage caused to the plant, STEME, POST Application (Stellaria media (STEME)) | percentage damage caused to the plant, STEME, PRE Application (Stellaria media (STEME)) |
| --- | --- | --- | --- | --- | --- | --- | --- | --- |
| CS(=O)(=O)c1ccc(C(=O)Nc2nnn[nH]2)c(Cl)c1COCC(F)(F)F [Compound 1.002] | 5 (5=80-100%) | 5 (5=80-100%) | 1 (1=0-19%) | 1 (1=0-19%) | 1 (1=0-19%) | 1 (1=0-19%) | 2 (2=20-39%) | 1 (1=0-19%) |
| Cc1nc(C(C)F)ccc1C(=O)Nc1nnnn1C (stereo not shown) [Compound 1.006] | 5 (5=80-100%) | 5 (5=80-100%) | 5 (5=80-100%) | 4 (4=60-79%) | 5 (5=80-100%) | 4 (4=60-79%) | 5 (5=80-100%) | 4 (4=60-79%) |
| COCc1nc(C(C)F)ccc1C(=O)Nc1nnnn1C (stereo not shown) [Compound 1.007] | 5 (5=80-100%) | 5 (5=80-100%) | 2 (2=20-39%) | 1 (1=0-19%) | 5 (5=80-100%) | 3 (3=40-59%) | 5 (5=80-100%) | 4 (4=60-79%) |
| Cn1nnnc1NC(=O)c1ccccc1Cl [Compound 1.015] | 4 (4=60-79%) | 5 (5=80-100%) | 4 (4=60-79%) | 3 (3=40-59%) | 1 (1=0-19%) | 1 (1=0-19%) | 4 (4=60-79%) | 3 (3=40-59%) |
| CCCn1nnnc1NC(=O)c1cccc(Cl)c1Cl [Compound 1.016] | 3 (3=40-59%) | 4 (4=60-79%) | 1 (1=0-19%) | 1 (1=0-19%) | 1 (1=0-19%) | 1 (1=0-19%) | 1 (1=0-19%) | 2 (2=20-39%) |
| COc1ccc2cc(C(=O)Nc3nnn[nH]3)c(C(F)(F)F)nc2n1 [Compound 2.001] | 3 (3=40-59%) | 1 (1=0-19%) | 1 (1=0-19%) | 1 (1=0-19%) | 1 (1=0-19%) | 1 (1=0-19%) | 3 (3=40-59%) | 1 (1=0-19%) |
| Cc1nc2nc(C(F)(F)F)c(C(=O)Nc3nnnn3C)cc2cc1F [Compound 2.002] | 5 (5=80-100%) | 5 (5=80-100%) | 2 (2=20-39%) | 2 (2=20-39%) | 4 (4=60-79%) | 3 (3=40-59%) | 5 (5=80-100%) | 3 (3=40-59%) |
| COc1cc2cc(C(=O)Nc3nnnn3C)c(C(F)(F)F)nc2nc1C [Compound 2.003] | 5 (5=80-100%) | 5 (5=80-100%) | 2 (2=20-39%) | 1 (1=0-19%) | 4 (4=60-79%) | 1 (1=0-19%) | 5 (5=80-100%) | 1 (1=0-19%) |
